Entries after “also recorded” stand apart in the source; their conditions may differ.

Test systems include agrD gene; C. perfringens CP4.6; netB gene.
Assay type in all cases: cell-based, Clostridium perfringens
Assay [1] deals with C. perfringens strain 4.6.
The test system of assay [2] is perfringolysin O (pfoA) toxin secreted by C. perfringens CP4.6.
The test system of assay [3] is C. perfringens strain 4.6. The source holds these as a separate data set.

With fengycin, in the assay on agrD gene, the “expression of agrD gene” value is “downregulated” and the “lowest concentration that downregulates expression of agrD” value worked out at 0.1 ppm. Further, the “cell growth (cell count, cfu/ml)” value in assay [1] is “did not interfere and had minimal effect on cell growth”. Further, in the assay with C. perfringens CP4.6, the “C. perfringens cell growth (planktonic cell count)” value is “did not interfere and had minimal effect on C. perfringens cell growth”. Further, in assay [2], the “hemolysis activity (zone of clearing)” value was “reduced significantly; also recorded: completely inhibited”. Further, in assay [3], the biofilm formation entry is given as “inhibited the ability of the organism to form biofilm”. Also, in the assay with netB gene, the “expression of netB gene” value is listed as “downregulated” and the “lowest concentration that downregulates expression of netB” value turned out to be 0.1 ppm.
